Where two headings read alike, the source gives them in different places.
How the values were obtained:
[1] = target: T1, HpMTAN (Helicobacter pylori, UniProt Q9ZMY2); test: Kinetics of HpMTAN with substrates, direct assay (absorbance at 274 nm); type: biochemical; conditions: substrate of purified HpMTAN
T1 construct: His6 (N); made in house; host or cells: E. coli BL21 (DE3)
T1 sequence (Q9ZMY2 1-230): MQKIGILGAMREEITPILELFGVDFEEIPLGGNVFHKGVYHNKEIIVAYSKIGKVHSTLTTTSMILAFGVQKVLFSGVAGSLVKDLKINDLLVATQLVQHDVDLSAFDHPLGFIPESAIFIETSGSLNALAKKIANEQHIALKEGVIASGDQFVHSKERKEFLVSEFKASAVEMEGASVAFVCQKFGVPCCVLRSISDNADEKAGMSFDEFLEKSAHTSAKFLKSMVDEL
Description: (§1) Kinetics of HpMTAN were determined using a direct assay involving absorbance decrease at 274 nm continuously as a consequence of formation of free adenine from 5′-methylthioadenosine. The Ki and Ki* values of BuT-DADMe-ImmA (30) were determined using coupled assays, in which xanthine oxidase was used as the coupling enzyme and absorbance increase was followed at 292 nm as the product adenine is converted to 2,8-dihydroxyadenine. Both assays have been previously described
BuT-DADMe-ImmA (30) was previously characterized as a transition state analogue inhibitor of EcMTAN (FIG. 1C)^8. Here, inhibition assays were performed using BuT-DADMe-ImmA against recombinant HpMTAN with 5′-methylthioadenosine as substrate. Purified HpMTAN uses both 5′-methylthioadenosine and 6-amino-6-deoxyfutalosine as facile substrates. […] The low Kd value supports the proposal that BuT-DADMe-ImmA is a transition state analogue inhibitor for HpMTAN. […] The nitrogen of the hydroxypyrrolidine moiety has a pKa value of 9, and thus mimics the positive charge of a ribocation at the transition state. The methylene bridge extends the distance between the sugar and the purine base leaving group, as this distance is near 3 Å at the transition state. […]

[2] = target: T2, H. pylori MTAN (Helicobacter pylori, UniProt Q9ZMY2); test: Ki determination: inhibition of recombinant HpMTAN, xanthine oxidase coupled assay, 5′-methylthioadenosine as substrate; type: biochemical
T2 construct: His6 (N); made in house; host or cells: E. coli BL21 (DE3)
T2 sequence (Q9ZMY2 1-230): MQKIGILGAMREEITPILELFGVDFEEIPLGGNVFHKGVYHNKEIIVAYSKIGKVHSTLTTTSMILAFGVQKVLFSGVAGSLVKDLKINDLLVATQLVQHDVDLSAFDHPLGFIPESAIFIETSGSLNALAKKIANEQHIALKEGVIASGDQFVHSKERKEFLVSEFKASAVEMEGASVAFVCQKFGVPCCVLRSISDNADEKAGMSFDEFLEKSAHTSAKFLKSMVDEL
Description: The purification procedure of HpMTAN was described previously^10. Briefly, BL21 (DE3) cells harboring a plasmid encoding HpMTAN with an N-terminal His6-tag were grown to an optical density of 0.7 measured at 595 nm and IPTG was introduced to a final concentration of 0.5 mM. After another 15 h at 22° C., cells were collected by centrifugation. The pellet was suspended and later disrupted by pressure cell and sonication. The soluble portion was applied to a Ni-NTA column and HpMTAN was eluted with an imidazole concentration gradient of 200 to 500 mM. The protein was desalted using a Superdex G15 gel-filtration column then equilibrated and concentrated in 10 mM Hepes, 30 mM KCl, pH 7.6. The purity was confirmed by SDS-PAGE.
as §1
(§2) BuT-DADMe-ImmA (30) was previously characterized as a transition state analogue inhibitor of EcMTAN (FIG. 1C)^8. Here, inhibition assays were performed using BuT-DADMe-ImmA against recombinant HpMTAN with 5′-methylthioadenosine as substrate. Purified HpMTAN uses both 5′-methylthioadenosine and 6-amino-6-deoxyfutalosine as facile substrates. […] The low Kd value supports the proposal that BuT-DADMe-ImmA is a transition state analogue inhibitor for HpMTAN. […] The nitrogen of the hydroxypyrrolidine moiety has a pKa value of 9, and thus mimics the positive charge of a ribocation at the transition state. The methylene bridge extends the distance between the sugar and the purine base leaving group, as this distance is near 3 Å at the transition state. The 9-deazaadenine alters conjugation in the purine ring, causing an elevated pKa and protonation of N7, resembling the N7-protonated adenine leaving group at the transition state.

[3] = system: H. pylori; test: H. pylori growth on tryptic soy agar with 5% horse blood (MIC); type: cell-based, Helicobacter pylori; conditions: for MIC90: Helicobacter pylori
Description: (§3) H. pylori were grown for 72 hours under microaerophilic condition (5% O2, 10% CO2 and 85% N2) at 37° C. on tryptic soy agar with 5% horse blood. To determine the MIC values, the test substance was added to the gel solution right before pouring. To compare the zones of inhibition, specific antibiotics were added to the center of disc after spreading H. pylori, and then H. pylori was allowed to grow for 72 hours under microaerophilic condition at 37° C.
The effects of BuT-DADMe-ImmA (30) were tested on H. pylori growing on 5% horse blood agar. At 6 ng/ml, slight growth was detected and at 8 ng/ml, no growth was detected, therefore the MIC90 value for inhibition of H. pylori growth is <8 ng/ml (FIG. 3A).

[4] = system: H. pylori; test: Zone of inhibition (disc) on H. pylori; type: cell-based, Helicobacter pylori; conditions: for zones of inhibition, comparison of antibiotics: equivalent amounts (10 ng or 20 ng per disc)
Description: FIG. 3A-3B: The effects of BuT-DADMe-ImmA (30) on H. pylori growth. A. The effects of increasing the concentration of BuT-DADMe-ImmA (ng/ml) on growth on blood agar. B. The inhibitory effects of BuT-DADMe-ImmA are compared with amoxicillin, metronidazole and tetracyclin in zone of inhibition studies. Drug concentrations were: 0 (top disc), 10 ng (middle disc) or 20 ng (bottom disc). Each specified antibiotic was applied to the disc in the same manner.
as §3
Commonly used antibiotics in H. pylori infections include amoxicillin, metronidazole and tetracycline. The anti-H. pylori effects of BuT-DADMe-ImmA (30) were compared to those antibiotics in common use. […] Thus, BuT-DADMe-ImmA is more efficient at inhibition of H. pylori growth than commonly used antibiotics.

[5] = system: K. pneumoniae; test: Growth of K. pneumoniae on MacConkey agar; type: cell-based; conditions: culture concentrations to 5 μg/ml, 24 hours
Description: (§4) At the desired concentration of the test substance BuT-DADMe-ImmA (30), K pneumoniae, S. flexneri and S. enterica were grown on MacConkey agar at 37° C. for 24 hours, and S. aureus and P. aeruginosa were grown on LB agar at 37° C. for 24 hours.
(§5) In most bacteria, MTANs are expressed and catalyze the hydrolysis of the N-ribosidic bonds of 5′-methylthioadenosine and S-adenosylhomocysteine. The two reactions are involved in bacterial quorum sensing, sulfur recycling via S-adenosylmethionine and polyamine synthesis^16; however, most bacterial MTANs are not essential for bacterial proliferation as judged by planktonic growth conditions. […] The effects BuT-DADMe-ImmA were also tested on the growth for additional clinically common pathogens, S. aureus, K pneumoniae, S. flexneri, S. enterica and P. aeruginosa. […] Because of the inhibitor specificity for this rare menaquinone pathway, treatment of H. pylori infections with BuT-DADMe-ImmA would be unlikely to generate antibiotic resistance in off-target bacterial species.

[6] = system: S. flexneri; test: Growth of S. flexneri on MacConkey agar; type: cell-based; conditions: culture concentrations to 5 μg/ml, 24 hours
Description: as §4, §5

[7] = system: S. enterica; test: Growth of S. enterica on MacConkey agar; type: cell-based; conditions: culture concentrations to 5 μg/ml, 24 hours
Description: as §4, §5

[8] = system: S. aureus; test: Growth of S. aureus on LB agar; type: cell-based; conditions: culture concentrations to 5 μg/ml, 24 hours
Description: as §4, §5

[9] = system: P. aeruginosa; test: Growth of P. aeruginosa on LB agar; type: cell-based; conditions: culture concentrations to 5 μg/ml, 24 hours
Description: as §4, §5

[10] = target: T2, H. pylori MTAN; conditions: Table 3, cited from earlier work
[11] = system: E. coli; conditions: reference 6; cited from earlier work
[12] = system: V. cholerae; conditions: reference 6; cited from earlier work
[13] = target: T3, MTAN (Escherichia coli, UniProt P0AF12); conditions: reference 6; cited from earlier work
T3 construct: host or cells: E. coli cells
T3 sequence (P0AF12 whole entry): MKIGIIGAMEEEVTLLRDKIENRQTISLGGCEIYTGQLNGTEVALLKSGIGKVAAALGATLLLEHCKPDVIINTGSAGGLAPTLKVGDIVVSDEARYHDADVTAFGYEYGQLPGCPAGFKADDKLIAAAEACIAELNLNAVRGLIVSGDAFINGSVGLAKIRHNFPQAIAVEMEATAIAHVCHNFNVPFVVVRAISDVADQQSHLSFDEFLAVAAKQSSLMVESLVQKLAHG

[14] = target: T4, MTAN (Vibrio cholerae serotype O1, UniProt Q9KPI8); conditions: reference 6; cited from earlier work
T4 construct: host or cells: V. cholerae cells
T4 sequence (Q9KPI8 whole entry): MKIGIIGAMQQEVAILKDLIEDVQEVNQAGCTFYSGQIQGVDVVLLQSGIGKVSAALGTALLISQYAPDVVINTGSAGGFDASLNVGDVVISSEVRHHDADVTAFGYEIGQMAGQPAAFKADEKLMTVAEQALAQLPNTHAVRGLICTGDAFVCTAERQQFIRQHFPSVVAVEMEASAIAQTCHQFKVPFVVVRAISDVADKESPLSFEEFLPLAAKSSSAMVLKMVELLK

[15] = stated without a test; cited from earlier work
[16] = substrate: CC(O)[C@H]1O[C@@H](n2cnc3c(N)ncnc32)[C@H](S)[C@@H]1O; test: Kinetics of HpMTAN with substrates, direct assay (absorbance at 274 nm); type: biochemical, Helicobacter pylori; conditions: other: substrate of purified HpMTAN
Description: as §1, §2

Molecule: Nc1ncnc2c1ncn2[C@@H]1O[C@H](CCC(=O)c2cccc(C(=O)O)c2)[C@@H](O)[C@H]1O [6-amino-6-deoxyfutalosine]
- Km [1]: 0.8 ± 0.3 µM
- kcat ([1]; in 1/s): 4.3±0.9

Molecule: CCCCSC[C@H]1CN(Cc2c[nH]c3c(N)ncnc23)C[C@@H]1O [Compound 30, (3R,4S)-4-(1-butylthiomethyl)-1-[(9-deaza-adenin-9-yl)-methyl]-3-hydroxypyrrolidine]
- Ki ([2]; 5′-methylthioadenosine as substrate, read-out: initial inhibition constant (Ki)): 0.8 nM
- Km/Kd ratio ([2]; Km 0.8 μM for 6-amino-6-deoxyfutalosine as substrate): 22,200
- Kd ([2]; following slow-onset of inhibition, read-out: equilibrium dissociation constant (Ki*=Kd)): 0.036 nM
- MIC90 ([3]; 5% horse blood agar, read-out: MIC90 value for inhibition of H. pylori growth): < 8 ng/mL
- MIC90 ([3]; Table 3, agar plate, 72 hours, microaerophilic, read-out: Inhibition of H. pylori growth MIC90): 6 to 8 ng/mL
- MIC90 ([3]; corresponds to MIC90 of 8 ng/ml, read-out: MIC90 as chemical concentration): 0.023 µM
- H. pylori growth ([3]; at 6 ng/ml, 5% horse blood agar): slight growth
- H. pylori growth ([3]; at 8 ng/ml, 5% horse blood agar): no growth
- zones of clearance ([4]; 10 ng on disc): Small zones of clearance
- zones of clearance ([4]; 20 ng on disc): large zones
- zones of inhibition, comparison of antibiotics [4]: greater than those for any of the other antibiotics
- growth inhibition of K. pneumoniae [5]: no growth inhibition
- growth inhibition of S. flexneri [6]: no growth inhibition
- growth inhibition of S. enterica [7]: no growth inhibition
- growth inhibition of S. aureus [8]: no growth inhibition
- growth inhibition of P. aeruginosa [9]: no growth inhibition
- Ki ([10]; value from Reference 10, read-out: Inhibition of H. pylori MTAN Ki*): 0.036 ± 0.002 nM
- Ki ([10]; value marked (Reference 10), read-out: Inhibition of H. pylori MTAN Ki): 0.79 ± 0.04 nM
- effect on growth of E. coli [11]: did not affect the growth
- effect on growth of V. cholerae [12]: did not affect the growth
- MTAN activity in E. coli [13]: totally abolished
- MTAN activity in V. cholerae [14]: totally abolished
- pKa value of the nitrogen of the hydroxypyrrolidine moiety [15]: 9

Molecule: Cc1ncc([N+](=O)[O-])n1CCO [metronidazole, reference compound]
- zones of inhibition, comparison of antibiotics [4]: no growth inhibition

B1: HpMTAN (Helicobacter pylori J99) (protein)
chain: MQKIGILGAMREEITPILELFGVDFEEIPLGGNVFHKGVYHNKEIIVAYSKIGKVHSTLTTTSMILAFGVQKVLFSGVAGSLVKDLKINDLLVATQLVQHDVDLSAFDHPLGFIPESAIFIETSGSLNALAKKIANEQHIALKEGVIASGDQFVHSKERKEFLVSEFKASAVEMEGASVAFVCQKFGVPCCVLRSISDNADEKAGMSFDEFLEKSAHTSAKFLKSMVDEL
notes: His6 (N); made in house; host or cells: E. coli BL21 (DE3)
- Km [16]: 0.6 ± 0.3 µM
- kcat [16]: 12.1 s⁻¹
- kcat/Km [16]: 2e+07 M⁻¹ s⁻¹
